Source: patent publication US20230151065A1, “MULTI-DISULFIDE-BOND LONG-CHAIN PEPTIDE WITH NEURO[…], PHARMACEUTICAL COMPOSITION AND APPLICATION” (priority 2018, published 2023)

Assays:
[1] = system: primary cultured hippocampal neurons damaged by NMDA; experiment: NMDA damage of primary cultured hippocampal neurons, MTT viability; format: cell-based, SD (Sprague-Dawley) rat; conditions: for hippocampal neuron activity after NMDA damage (MTT): MK801 10 μM
Text: (1) Establishment of NMDA damage model. Primary culture of hippocampal neurons: SD (Sprague-Dawley) female rats pregnant for 18-19 days were anesthetized with a compound anaesthetic agent; fetal rat brains were taken under aseptic conditions and placed in HBSS solution (8.4 g/L of NaCl, 0.224 g/L of KCl, 2.38 g/L of HEPES, 500,000 units of penicillin sodium and 500,000 units of kanamycin sulfate; the pH was adjusted to 7.1-7.2 with 1M NaOH; then the osmotic pressure was adjusted to about 290±10 m Osm with ultrapure water; and after filtration, the solution was stored at 4° C.); the meninges were removed under a stereoscopic dissecting microscope; the bilateral hippocampus was removed and digested in 0.125% pancreatic protease at 37° C. for 10 min; and complete media (90% DMEM medium+10% FBS) (FBS: fetal bovine serum) was used to terminate the digestion; the bilateral hippocampus was washed for 3 times with the complete media to make a single cell suspension; the cell density was adjusted to about 7-8×10^5/ml; and the bilateral hippocampus was inoculated to a 6-well/96-well cell culture plate/60 mm culture dish/slide coated with L-polylysine. After 24 hours, the media were changed to serum-free neurobasal media (GIBCO) which were then placed in a 5% CO2, 37° C. incubator for culture; and half of the solution was changed every three days.
(2) NMDA damage treatment of hippocampal neurons: (1) The original media were sucked out and the cells were washed with magnesium-free extracellular fluid for three times, each for 5 minutes. (2) 10 mM NMDA (N-methyl-D-aspartic acid) and 10 mM Gly (glycine) were prepared with magnesium-free extracellular fluid, and NMDA was prepared to different concentrations with the magnesium-free extracellular fluid, wherein the final concentration of Gly was 10 μM. […] After damage, the cells were washed for three times with DMEM medium, each for 5 minutes. (3) The original culture media were re-added to continue for culturing for 24 hours.
(3) Detection of viability of hippocampal neurons after NMDA damage: (1) The hippocampal neurons were inoculated into a 96-well culture plate at 8×10^5 cells/ml, 0.1 ml per well, and cultured in a 5% CO2 incubator for 7-8 days. (2) After NMDA damage treatment and continuous culture for 24 hours, the culture solution was sucked off. (3) 100 μl of DMEM culture medium containing MTT (3-(4,5-dimethylthiazole-2)-2,5-diphenyltetrazolium bromide, 0.5 mg/ml) was added to each well, and the culture plate was put into 37° C., 5% CO2 incubator for culturing for 4 h. (4) 100 μl of 20% SDS was added to each well (20 g of sodium lauryl sulfate was dissolved in 50 ml of ddH2O+50 ml of N,N dimethylformamide) at 37° C. for 20 h. (5) The solution was shaken on a horizontal shaker for 5 min. (6) The optical density (OD) was measured at 570 nm (reference wavelength of 490 nm) on a microplate reader.
(6) Effect of ABPPk2 on decrease of hippocampal neuron activity caused by NMDA. Effect of different concentrations of ABPPk2 on hippocampal neuron damage caused by NMDA (100 μM, 30 min). The experiment was divided into 9 experimental groups: a normal group, NMDA (100 μM, 30 min) group (as a control group), ABPPk2 (0.01 μg/ml) group, ABPPk2 (0.1 μg/ml) group, ABPPk2 (0.3 μg/ml) group, ABPPk2 (1 μg/ml) group, ABPPk2 (3 μg/ml) group, ABPPk2 (10 μg/ml) group and MK801 (dizocilpine, 10 μM) group (as a positive control group). Three administration ways were adopted for ABPPk2: (1) ABPPk2 was administered 12 hours before and during the NMDA damage. (2) ABPPk2 was administered during NMDA damage. (3) ABPPk2 was administered during 24 hours of culture after NMDA damage.

[2] = system: primary cultured SD fetal rat cortical neurons after OGD damage; experiment: OGD damage of cortical neurons, Hoechst 33258 staining of apoptotic bodies; format: cell-based; conditions: OGD 2 h, 24 h reoxygenation; ABPPk2 8, 40, 200 ng/ml, dose-dependent; BDNF 10 ng/ml
Experimental: The suspension was filtered with a 400-mesh screen, centrifuged at 1000 rpm for 5 min, and blown to form the single cell suspension. DMEM high glucose complete medium (containing 10% fetal bovine serum) was inoculated in a culture dish or culture plate pre-coated with polylysine (PLL) to culture in 5% CO2 incubator with saturated humidity at 37° C. After the cells were cultured for 4 h to adhere to the wall, the cells were cultured with neuron culture medium (neurobasal+2% B27) for 3 d to observe the growth of neurons. The culture medium containing cytarabine (the final concentration of cytarabine was 2.5 μg/ml) was substituted with half quantity to culture for 3d to inhibit the growth of glial cells and miscellaneous cells to obtain purely cultured primary cortical nerve cells. The purity of the cortical neurons was identified by immunocytochemical staining as more than 90%.
After the cortical neurons were cultured to the 7th day, the original culture medium was sucked out, and the cells were rinsed twice with sugar-free DMEM basal medium, for 5 min each time. Each OGD damage group was added with DMEM sugar-free culture medium, placed in a Billups-Rothenberg anaerobic culture chamber, filled with 95% N2/5% CO2 to balance for 15 min, and sealed for 2 h to build an OGD model. […]

## C[C@]12N[C@H](Cc3ccccc31)c1ccccc12 [MK801, dizocilpine, reference compound]
[1]; given 12 h before and during NMDA (100 μM, 0.5 h), ABPPk2 0.1, 0.3 and 1 μg/ml groups
  hippocampal neuron activity after NMDA damage (MTT): can effectively reduce the decrease of hippocampal neuron activity caused by NMDA damage
[1]; given during 24 h culture after NMDA damage (100 μM, 0.5 h), ABPPk2 0.1-10 μg/ml
  hippocampal neuron activity after NMDA damage (MTT): can effectively reduce the decrease of hippocampal neuron activity caused by NMDA damage
[1]; given during NMDA damage (100 μM, 0.5 h), ABPPk2 1 and 10 μg/ml groups
  hippocampal neuron activity after NMDA damage (MTT): can effectively reduce the decrease of hippocampal neuron activity caused by NMDA damage

## CLETSGSCIPGAQHNCCSGVCVPLVTLFYGVCY (Achyranthes bidentata Blume) [SEQ ID No: 3]
[1]; overall statement, experimental solution of embodiment 6, concentration and administration way not stated
  protective effect on NMDA damage of primary hippocampal neurons: can effectively reduce the decrease of hippocampal neuron activity caused by NMDA damage

B1: BDNF: positive control group, final concentration of 10 ng/ml (protein, UniProt P23560 19-247, looked up)
Neurotrophic factor BDNF …: APMKEANIRGQGGLAYPGVRTHGTLESVNGPKAGSRGLTSLADTFEHVIEELLDEDQKVRPNEENNKDADLYTSRVMLSSQVPLEPPLLFLLEEYKNYLDAANMSMRVRRHSDPARRGELSVCDSISEWVTAADKKTAVDMSGGTVTVLEKVPVSKGQLKQYFYETKCNPMGYTKEGCRGIDKRHWNSQCRTTQSYVRALTMDSKKRIGWRFIRIDTSCVCTLTIKRGR
[2]
  apoptotic bodies of cortical neuron nuclei: the apoptotic bodies are reduced
